In patent US12653189B2, “Herbicidal compositions comprising glyphosate” (BASF SE, priority 2023, dated 2026):

How the values were obtained:
Assay in all cases: Post-emergence application in field trials
Assay type in all cases: in vivo
[1] = system: AMARE (Amaranthus retroflexus)
Protocol: (§1) In the examples below, using the method of S. R. Colby (1967) “Calculating synergistic and antagonistic responses of herbicide combinations”, Weeds 15, p. 22ff., the value E, which is expected if the activity of the individual active compounds is only additive, was calculated:
(§2) [formula] • where • X=percent activity using active herbicide A at an application rate a; • Y=percent activity using active glyphosate at an application rate b; • E=expected activity (in %) by A+B at application rates a+b.
(§3) For 3- and 4-component mixtures (examples 3-5) the synergistic response was calculated as described in: Ferry, Nancy; Stanley, Bruce H.; and Armel, Gregory (2005). “DESIGN AND ANALYSIS OF BIOLOGICAL ASSAYS OF MIXTURES,” Conference on Applied Statistics in Agriculture. https://doi.org/10.4148/2475-7772.1133. According to this publication, the Colby calculation can be generalized to a third mixing partner, Z, employing the following formula: […]
(§4) If the value found experimentally is higher than the value E calculated according to Colby, a synergistic effect is present.
(§5) On field test sites, natural weed infestation or seeded weeds were treated post-emergence of the weeds.
(§6) In the field trials, the weedy plants were treated as indicated below.
(§7) Herbicide A-1 (342 g/I), glyphosate (480 g/I or 575 g/l) and optional herbicide C were, together with addition of 0.5% v/v MSO (methylated seed oil) as adjuvant (unless indicated otherwise), formulated in water as distribution medium as indicated and sprayed with commercial flat fan nozzles.
(§8) In the following experiments, the herbicidal activity for the individual herbicidal compositions (solo and mixture applications) was assessed at the indicated days after treatment (DAT). The assessments for the damage on undesired weeds caused by the composition was carried out using a scale from 0 to 100%, compared to the untreated control plants. Here, 0 means no damage and 100 means complete destruction of the plants.

[2] = system: ECHCG (Echinocloa crus-galli); conditions: growth stage 23-30, height 15-20 cm, water volume 200 l/ha, 0.25% v/v MSO
Protocol: as §1, §2, §3, §4, §5, §6, §7, §8

AMATU = conditions: growth stage 19, height 10-20 cm, A-1 50 g ai/ha, B-6 840 g ai/ha, 23 DAT, water volume 140 l/ha, 1% v/v MSO + 2.5% v/v AMS
Protocol: as §5, §6, §7, §8

IPOTR (Ipomoea triloba) = conditions: B-6 1080 g ai/ha, 21 DAT, water volume 200 l/ha, 0.5% v/v MSO
Protocol: as §1, §2, §3, §4, §5, §6, §7, §8

[3] = system: SPCHI (Spermacoce hispida); conditions: height 25 cm, A-1 25 g ai/ha, B-6 1080 g ai/ha, 21 DAT, water volume 100 l/ha, 0.5% v/v MSO
Protocol: as §1, §2, §3, §4, §5, §6, §7, §8

[4] = system: DIGIN = TRCIN (Digitaria insularis); conditions: height 20-30 cm, A-1 50 g ai/ha, B-6 1080 g ai/ha, 7 DAT, water volume 200 l/ha, 0.5% v/v MSO
Protocol: as §1, §2, §3, §4, §5, §6, §7, §8

[5] = system: AMAPA (Amaranthus palmeri); conditions: Glyphosate (EPSPS) resistant AMAPA, height 5-23 cm; A-1 50 g ai/ha, B-6 840 g ai/ha; 21 DAT; water volume 140 l/ha; 1% v/v MSO + 2.5% v/v AMS
Protocol: as §1, §2, §3, §4, §5, §6, §7, §8

[6] = system: GLXMA (Glycine max (soybean)); conditions: glyphosate-tolerant volunteer soybean M 6210 IPRO (GLXMA), growth stage 18; A-1 25 g ai/ha, B-6 1080 g ai/ha; 21 DAT; water volume 200 l/ha; 0.5% v/v MSO
Protocol: as §1, §2, §3, §4, §5, §6, §7, §8

[7] = system: BRADC (Brachiaria decumbens); conditions: A-1 50 g ai/ha, B-6 1080 g ai/ha, 21 DAT, water volume 100 l/ha, 0.5% v/v MSO
Protocol: as §1, §2, §3, §4, §5, §6, §7, §8

ELEIN (Eleusine indica) = conditions: growth stage 23-25, height 3-5 cm, A-1 25 g ai/ha, B-6 1080 g ai/ha, 20 DAT, water volume 200 l/ha, 0.5% v/v MSO
Protocol: as §1, §2, §3, §4, §5, §6, §7, §8

PANMA (Panicum maximum) = conditions: A-1 25 g ai/ha, B-6 1080 g ai/ha, 21 DAT, water volume 100 l/ha, 0.5% v/v MSO
Protocol: as §1, §2, §3, §4, §5, §6, §7, §8

ZEAMX (Zea mays (maize)) = conditions: glyphosate-tolerant volunteer corn RB 9006 PRO 2 (ZEAMX), growth stage 18; A-1 25 g ai/ha, B-6 1080 g ai/ha; 21 DAT; water volume 200 l/ha; 0.5% v/v MSO
Protocol: as §1, §2, §3, §4, §5, §6, §7, §8

[8] = system: COMBE (Commelina benghalensis); conditions: B-6 1080 g ai/ha, 21 DAT, water volume 200 l/ha, 0.5% v/v MSO
Protocol: as §1, §2, §3, §4, §5, §6, §7, §8

[9] = system: HORVW (Hordeum vulgare (barley)); conditions: HORVW volunteer crop, growth stage 23-29, height 20-25 cm; A-1 + C-4 12.5 + 12.5, B-6 840, C-1 12.5 g ai/ha; 7 DAT; water volume 200 l/ha; 0.25% v/v MSO
Protocol: as §1, §2, §3, §4, §5, §6, §7, §8

[10] = growth stage 32, height 12 cm, A-1 + B-6 12.5 + 840, C-1 12.5, C-4 12.5 g ai/ha, 42 DAT, water volume 200 l/ha, 0.25% v/v MSO
[11] = ECHCG, A-1 12.5, B-6 840, C-4 12.5 g ai/ha, 7 DAT
[12] = Table 5.1: ECHCG, A-1 + C-1 12.5 + 12.5, B-6 840, C-4 12.5 g ai/ha, 7 DAT
[13] = growth stage 19, height 10-20 cm, A-1 50 g ai/ha, B-6 840 g ai/ha, 23 DAT, water volume 140 l/ha, 1% v/v MSO + 2.5% v/v AMS
[14] = ECHCG, A-1 12.5, B-6 840, C-1 12.5 g ai/ha, 7 DAT
[15] = ECHCG, A-1 12.5, B-6 840, C-1 12.5 g ai/ha, 28 DAT
[16] = Table 5.2: ECHCG, A-1 + C-4 12.5 + 12.5, B-6 840, C-1 12.5 g ai/ha, 7 DAT

| SMILES | % Herbicidal activity [1, 10] [%] | % Herbicidal activity [2, 11] [%] | % Herbicidal activity [2, 12] [%] | % Herbicidal activity (AMATU) [%] | % Herbicidal activity (IPOTR (Ipomoea triloba); A-1 25 g ai/ha) [%] | % Herbicidal activity (IPOTR (Ipomoea triloba); A-1 50 g ai/ha) [%] | % Herbicidal activity [3] [%] | % Herbicidal activity [4] [%] | % Herbicidal activity [1, 13] [%] | % Herbicidal activity [5] [%] | % Herbicidal activity [6] [%] | % Herbicidal activity [7] [%] | % Herbicidal activity (ELEIN (Eleusine indica)) [%] | % Herbicidal activity (PANMA (Panicum maximum)) [%] | % Herbicidal activity [2, 14] [%] | % Herbicidal activity [2, 15] [%] | % Herbicidal activity (ZEAMX (Zea mays (maize))) [%] | % Herbicidal activity ([8]; A-1 25 g ai/ha) [%] | % Herbicidal activity ([8]; A-1 50 g ai/ha) [%] | % Herbicidal activity [9] [%] | other results |
| --- | --- | --- | --- | --- | --- | --- | --- | --- | --- | --- | --- | --- | --- | --- | --- | --- | --- | --- | --- | --- | --- |
| C#CCN1C(=O)C(F)(F)Oc2cc(F)c(-n3c(=O)n(C)c(=S)n(C)c3=O)cc21 [C-4, trifludimoxazin] | 45 | 20 | 20 | – | – | – | – | – | – | – | – | – | – | – | – | – | – | – | – | – | – |
| CCOC(=O)COc1ccccc1Oc1nc(-n2c(=O)cc(C(F)(F)F)n(C)c2=O)c(F)cc1Cl [A-1, ethyl 2-[2-[[3-chloro-5-fluoro-6-[3-methyl-2,6-dioxo-4-(trifluoromethyl)pyrimidin-1-yl]-2-pyridyl]oxy]phenoxy]acetate] | – | 30 | – | 73 | 82 | 88 | 30 | 58 | 73 | 74 | 93 | 71 | 82 | 73 | 30 | 20 | 53 | 60 | 82 | – | – |
| O=C(O)CNCP(=O)(O)O [B-6, glyphosate-potassium] | – | 70 | 70 | 50 | 30 | 30 | 20 | 2 | 50 | 10 | 0 | 75 | 68 | 75 | 70 | 94 | 0 | 30 | 30 | 80 | % Herbicidal activity [2, 16]: 70% |
| CC(C)N(C)S(=O)(=O)NC(=O)c1cc(-n2c(=O)cc(C(F)(F)F)n(C)c2=O)c(F)cc1Cl [C-1, saflufenacil] | 55 | – | – | – | – | – | – | – | – | – | – | – | – | – | 20 | 20 | – | – | – | 0 | % Herbicidal activity [2, 16]: 20% |
